Several values for one entry are separate records, joined by “and”; a condition that tells them apart may be missing. Equal values may be shown once. Read-outs that look alike come from different tables or passages of the source.
Key:
Aβ40 peptides = target: T1, Aβ40 peptides (Homo sapiens, UniProt P05067); assay: CD spectroscopy on the Aβ40 secondary structure
T1 construct: namely, the Aβ40 peptide; purchased AlexoTech AB (Umeå, Sweden); host or cells: recombinant
Protocol: The CD spectra for Aβ40 monomers in aqueous buffer display spectra with minima around 196–198 nm (Figure 5B,E), which is typical for a random coil conformation. […] The difference spectrum is not conclusive but might represent β-sheet conformation (Figure 5C).
CD measurements were carried out on a Chirascan CD spectrometer from Applied Photophysics Ltd. (U.K). Samples containing 600 μL of 10 μM Aβ40 peptide in 20 mM phosphate buffer, at either pH 7.3 or pH 5.1, were placed in a quartz cuvette with a 2 mm pathlength. CD spectra were recorded at 20 °C between 192 and 250 nm using steps of 0.5 nm and a sampling time of 5 s per data point. […] All data was processed with the Chirascan Pro-Data v.4.4.1 software (Applied Photophysics Ltd., U.K.), including smoothing with a ten-point smoothing filter. 50 mM SDS detergent was added to some of the samples as SDS micelles constitute a simple model for bio-membranes.[125],[126] Aβ peptides are known to insert their central and C-terminal segments as α-helices into SDS micelles, while the N-terminal Aβ segment remains unstructured outside the micelle surface.[19],[125] Because the critical micelle concentration for SDS is 8.2 mM in water at 25 °C,[152] micelles clearly formed under the experimental conditions. With approximately 62–65 SDS molecules per micelle,[156] 50 mM SDS yields a micelle concentration slightly below 1 mM, i.e., much higher than the concentration of Aβ peptides. This means that each micelle will generally contain no more than one Aβ peptide, which effectively prevents Aβ aggregation and ensures that uranyl interactions are with monomeric Aβ peptides. […] Even though 50 mM SDS would efficiently denature most folded proteins, such denaturing effects are not relevant for small intrinsically disordered peptides such as Aβ (in monomeric form).

Aβ42 oligomers = target: T2, Aβ42 oligomers (Homo sapiens, UniProt P05067); assay: FTIR spectroscopy of SDS-stabilized Aβ42 oligomer structure
T2 construct: Synthetic lyophilized wt Aβ (1–42) peptides, abbreviated as Aβ42; purchased JPT Peptide Technologies (Germany); host or cells: synthetic peptide
Protocol: The secondary structures of Aβ42 oligomers formed with different SDS and uranyl concentrations were studied with FTIR spectroscopy, where the amide I region (1700–1600 cm^–1) is very sensitive to changes in the protein backbone conformation, including differences in β-sheet structures.[133]−[135] […] This split pattern of IR bands in the amide I region is typical for anti-parallel β-sheet structures.[136]−[138]
Treatment of Aβ42 peptides with low concentrations (≤7 mM) of SDS, i.e., below the critical micelle concentration for SDS, which is 8.2 mM in water at 25 °C,[152] leads to the formation of stable and homogeneous Aβ42 oligomers of certain sizes and conformations.[131],[132],[153] […] The absorbance for each fraction at 280 nm was measured with a NanoDrop instrument (Eppendorf, Germany), and peptide concentrations were determined using a molar extinction coefficient of 1280 M^–1 cm^–1 for the single Tyr in Aβ42.[155] […]
FTIR spectra of the SDS-stabilized Aβ42 oligomers (prepared as described in Section 5.2) were recorded in transmission mode on a Tensor 37 FTIR spectrometer (Bruker Optics, Germany) equipped with a sample shutter and a liquid nitrogen-cooled MCT detector. […] FTIR spectra were recorded at room temperature in the 1900–800 cm^–1 range, with 300 scans for both background and sample spectra, using a 6 mm aperture and at a resolution of 2 cm^–1. […]

[1] = target: T3, Aβ40 (H6A, H13A, and H14A) triple-mutant, Aβ40 (NoHis) (Homo sapiens, UniProt P05067, H677A/H684A/H685A); assay: Binding affinity via Tyr10 fluorescence quenching, Aβ40 (NoHis) mutant; conditions: 20 μM Aβ40 (NoHis)
T3 construct: the Aβ40 (H6A, H13A, and H14A) triple-mutant; purchased AlexoTech AB (Umeå, Sweden); host or cells: recombinant
T3 sequence (P05067 672-711 H677A/H684A/H685A): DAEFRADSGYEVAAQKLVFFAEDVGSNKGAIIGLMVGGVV

T1 sequence (P05067 672-711 limits assumed): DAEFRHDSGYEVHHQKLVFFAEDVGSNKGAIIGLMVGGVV
T2 sequence (P05067 672-713 limits assumed): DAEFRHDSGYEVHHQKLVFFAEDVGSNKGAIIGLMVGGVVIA

Which results are given for `CC(=O)[O-].CC(=O)[O-].[O]=[U+2]=[O]` [uranyl ions, uranyl acetate]?
structural transition of Aβ40 (CD) (Aβ40 peptides; 50 mM SDS micelles, pH 5.1, 10 μM Aβ40): structural conversion from α-helix to a random coil; changes in the Aβ40 CD spectrum (Aβ40 peptides; 50 mM SDS micelles, pH 7.3, 10 μM Aβ40): no changes at all; structural transition of Aβ40 (CD) (Aβ40 peptides; aqueous buffer pH 5.1, 10 μM Aβ40, 2-256 μM uranyl acetate, 20 °C): conversion from random coil to β-sheet; structural effect on Aβ40 (CD), compared with pH 5.1 (Aβ40 peptides; aqueous buffer pH 7.3, 10 μM Aβ40, 2-256 μM uranyl acetate, 20 °C): weaker; β-sheet main band position (amide I, FTIR) (Aβ42 oligomers; AβO0.05%SDS oligomers in PBS, 1 mM uranyl acetate (1628.3 without)): 1627.8 cm^–1; β-sheet main band position (amide I, FTIR) (Aβ42 oligomers; AβO0.2%SDS oligomers, 0.01, 0.1, and 1 mM uranyl acetate (1629.9 without)): 1629.8 cm^–1; Kd ([1]; pH 5.1 + 50 mM SDS, read-out: KD^App, single replicates): 22.3 µM and 30.7 µM and 27.9 µM; Kd ([1]; pH 5.1 + 50 mM SDS, three replicates, read-out: KD^App, average): 27 ± 4 µM; Kd ([1]; pH 5.1, 20 mM MES, read-out: KD^App, single replicates): 2.3 µM and 2.8 µM and 4 µM; Kd ([1]; pH 5.1, 20 mM MES, three replicates, read-out: KD^App, average): 3 ± 1 µM
